According to patent US20070254952A1, “CANNABINOID RECEPTOR MODULATORS” (priority 2006, published 2007):

Legend:
[1] = molecular target: T1, CB2 receptor (Homo sapiens, UniProt P34972); assay: Competition binding assay for cannabinoid CB2 affinity (3H-CP55,940 displacement, membranes); settings: membranes from cells expressing the receptor, 0.5 nM 3H-CP55,940; Ki by Cheng and Prusoff
T1 construct: purchased
Procedure: (§1) Competition binding assays for cannabinoid CB1 and CB2 affinity were performed by incubating commercially purchased membranes prepared from cells expressing each receptor subtype (8 μg pro) with 0.5 nM ^3H-CP55,940, a non-selective cannabinoid agonist, along with concentrations of drug ranging from 0.0001-3 μM in Buffer A (5 mM MgCl2, 2.5 mM EDTA and […] BSA). Non-specific binding was defined in the presence of 10 μM CP55,940. For saturation studies, concentrations of ^3H-CP55,940 ranging from 0.1-5 nM were incubated with membranes in the presence and absence of 10 μM CP55,940. Assays were terminated after incubation for 1½ hours by rapid filtration onto 0.3% polyethylenamine treated GF/C filterplates using a BRANDEL cell harvester. The plates were dried and MICROSCINT scintillation cocktail was added, after which the bound radioactivity was quantified using a TOPCOUNT scintillation counter.
(§2) The dissociation constant (Kd) of ^3H-CP55,940 at the CB1 and CB2 receptor were determined by plotting specific binding at each concentration of radioligand, and analysis by non-linear regression. For competition studies, the concentration of each drug that inhibited 50 percent of ^3H-CP55,940 binding (IC50) was determined by non-linear regression analysis of the radioligand displacement curves. Affinity constants (Ki) were calculated using the equation derived by Cheng and Prusoff (1973), defined as: IC50/1+[conc. ligand/Kd].

[2] = molecular target: T2, CB1 receptor (Homo sapiens, UniProt P21554); assay: Competition binding assay for cannabinoid CB1 affinity (3H-CP55,940 displacement, membranes); settings: membranes from cells expressing the receptor, 0.5 nM 3H-CP55,940; Ki by Cheng and Prusoff
T2 construct: purchased
Procedure: as §1, §2

T1 sequence (P34972 whole entry): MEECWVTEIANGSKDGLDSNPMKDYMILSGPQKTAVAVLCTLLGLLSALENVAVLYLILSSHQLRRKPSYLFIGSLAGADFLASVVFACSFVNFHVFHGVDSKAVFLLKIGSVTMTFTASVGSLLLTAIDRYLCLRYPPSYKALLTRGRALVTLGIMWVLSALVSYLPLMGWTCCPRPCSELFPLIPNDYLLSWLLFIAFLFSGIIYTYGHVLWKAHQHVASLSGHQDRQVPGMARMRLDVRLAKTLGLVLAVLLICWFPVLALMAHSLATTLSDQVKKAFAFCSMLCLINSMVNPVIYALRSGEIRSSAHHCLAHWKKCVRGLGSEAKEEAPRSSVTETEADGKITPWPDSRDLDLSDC
T2 sequence (P21554 whole entry): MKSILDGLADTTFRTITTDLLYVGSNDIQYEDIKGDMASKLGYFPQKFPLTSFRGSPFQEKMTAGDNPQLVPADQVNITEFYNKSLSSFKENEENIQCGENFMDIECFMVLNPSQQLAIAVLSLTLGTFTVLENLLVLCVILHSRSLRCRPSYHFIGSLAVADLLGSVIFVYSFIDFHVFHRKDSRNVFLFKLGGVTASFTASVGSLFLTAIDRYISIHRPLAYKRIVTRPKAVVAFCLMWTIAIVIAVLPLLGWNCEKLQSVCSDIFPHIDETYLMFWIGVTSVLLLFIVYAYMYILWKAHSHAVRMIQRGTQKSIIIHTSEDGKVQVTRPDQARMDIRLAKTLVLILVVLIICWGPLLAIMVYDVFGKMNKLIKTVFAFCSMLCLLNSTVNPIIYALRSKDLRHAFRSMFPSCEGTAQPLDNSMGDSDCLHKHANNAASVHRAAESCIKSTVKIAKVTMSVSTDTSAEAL

Compound	Ki [1] [nM]	Ki [2] [nM]
N#Cc1ccc(OC[C@@H]2C[C@H](c3ccc(Cl)cc3)[C@H](c3ccc(Cl)cc3Cl)C2)cc1 [Compound 18]	> 1500	1.86
N#Cc1ccc(CNC[C@@H]2C[C@H](c3ccc(Cl)cc3)[C@H](c3ccc(Cl)cc3Cl)C2)cc1 [Compound 14]	> 1800	12.7
N#Cc1ccc(NC[C@H]2C[C@H](c3ccc(Cl)cc3)[C@H](c3ccc(Cl)cc3Cl)C2)cc1 [Compound 16]	> 1500	> 1500
N#Cc1ccc(NC[C@@H]2C[C@H](c3ccc(Cl)cc3)[C@H](c3ccc(Cl)cc3Cl)C2)cc1 [Compound 15]	> 1500	1
Fc1ccc(OC[C@@H]2C[C@H](c3ccc(Cl)cc3)[C@H](c3ccc(Cl)cc3Cl)C2)cc1F [Compound 17]	> 1800	12.5
